What was measured:
[1] = test system: nematode; experiment: Capsule field trial Location 2, nematode count; type: in vivo; settings: 3.5 Kg/Ha granules
From the text: (§1) Field trials for the gel capsules of Example I were established under commercial conditions in banana production areas of Central America. Bananas were transplanted using commercial procedures typical of the area. Gel capsules according to Example I were used as a post-plant treatment. A commercial standard was also included as a comparison in each test. Treatments and use rates for both field trials are included in the Tables 3 and 4 below. Location 1 included four replications for each treatment and location 2 included three replications.
(§2) Gel caps were applied in the area immediately surrounding the base of the banana plant. Holes were made to a depth of 15-20 cm using a rod inserted into the soil. Gel caps were applied into the holes by hand and soil was reapplied into the holes to cover the gel caps. Commercial standards were formulated as granules and applied around the base of the plant without incorporation.
Several parameters were measured at intervals following application of the pesticide. Plant height and plant trunk diameter were evaluated over time at intervals of approximately two, four and six weeks after application of the pesticide. Root weight, percent functional roots and nematode counts were taken at intervals of 45 and 60 days after application (DAA). Plant height and trunk diameter were evaluated as direct measurements and are recorded in units of centimeters. […]

[2] = test system: banana plant; experiment: Capsule field trial Location 2, banana growth parameters; type: in vivo; settings: 3.5 Kg/Ha granules
From the text: as §1, §2
Several parameters were measured at intervals following application of the pesticide. Plant height and plant trunk diameter were evaluated over time at intervals of approximately two, four and six weeks after application of the pesticide. Root weight, percent functional roots and nematode counts were taken at intervals of 45 and 60 days after application (DAA). Plant height and trunk diameter were evaluated as direct measurements and are recorded in units of centimeters. Root weight, percent functional roots and nematode counts were obtained by separate soil samples which were taken and returned to the lab for analysis. Roots were separated from the soil and weighed. A separate, visual estimate was made to determine the percent of these roots that were healthy and functional. Nematode counts were made by extracting them from the roots and soil and then estimating the total by counting the actual number in subsamples of the extracted materials.

CCOP(=O)(SC(C)CC)SC(C)CC (stereo not drawn) [cadusaphos, cadusafos]
Nematode count ([1]; 45 DAA): 11,200a | Nematode count ([1]; 60 DAA): 23,733a | Plant Height ([2]; 15 DAA): 143 cm | Stem diameter ([2]; 15 DAA): 30 cm | Plant Height ([2]; 29 DAA): 156 cm | Stem diameter ([2]; 29 DAA): 33 cm | Plant Height ([2]; 43 DAA): 169 cm | Stem diameter ([2]; 43 DAA): 36 cm | % Functional roots ([2]; 45 DAA): 82% | Root weight ([2]; 45 DAA): 44 gms | % Functional roots ([2]; 60 DAA): 86% | Root weight ([2]; 60 DAA): 53 gms

Reference: US9661844B2, “Pesticide composition delivery vehicles” (Dow AgroSciences LLC, priority 2012, dated 2017)
